In patent publication US20240425501A1, “NOVEL BICYCLIC HETEROARYL DERIVATIVES AS SOS1:KRAS PROTEINPROTEIN INTERACTION INHIBITORS” (SATYARX PHARMA INNOVATIONS PVT LTD, priority 2021, published 2024):

What follows are compounds tested against T1, hSOS1 enzyme / KRAS (G12C), GST-Tag, GDP-bound protein (Homo sapiens, UniProt Q07889) (assay: SOS1-mediated KRAS guanine nucleotide exchange (GEF) assay, HTRF ("On Assay")). Conditions: 1 μM compound.
T1 sequence (Q07889 564-1049 limits assumed): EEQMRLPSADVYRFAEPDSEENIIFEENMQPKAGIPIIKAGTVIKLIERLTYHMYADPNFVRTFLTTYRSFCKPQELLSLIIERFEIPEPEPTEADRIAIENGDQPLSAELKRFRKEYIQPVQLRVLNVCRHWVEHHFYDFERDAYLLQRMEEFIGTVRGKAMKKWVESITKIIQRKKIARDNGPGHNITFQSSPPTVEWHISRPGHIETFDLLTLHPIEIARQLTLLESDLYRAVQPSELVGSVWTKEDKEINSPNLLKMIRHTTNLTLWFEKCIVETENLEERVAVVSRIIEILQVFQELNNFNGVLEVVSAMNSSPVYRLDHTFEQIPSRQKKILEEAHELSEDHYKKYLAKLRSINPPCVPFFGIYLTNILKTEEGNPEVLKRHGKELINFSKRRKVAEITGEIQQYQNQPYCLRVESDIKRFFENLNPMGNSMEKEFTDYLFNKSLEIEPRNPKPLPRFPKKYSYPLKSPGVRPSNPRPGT
Assay type: biochemical
Procedure: Biochemical Assay: Measurement of SOS1-Mediated KRAS Guanine Nucleotide Exchange (GEF) Assay
This assay quantifies the HTRF-based SOS1 mediated guanine nucleotide exchange assay detecting GTP binding to KRAS (G12C), GST-Tag, GDP-bound protein. This is also referred as “On Assay”.The assay buffer composition is as follows: 10 mM HEPES pH-7, 150 mM NaCl, 5 mM MgCl2, 1 mM DTT, 0.05% BSA, 0.0025% IGEPAL CA-630 and MilliQ water. 0.5 μl of compounds diluted in assay buffer were dispensed into the respective wells of 384 black well test plate. 4.75 μl of KRAS working solution containing 100 nM KRAS (G12C), GST-Tag, GDP-bound protein GDP-loaded (Reaction biology) and 2 nM Anti GST-Tb cryptate (FRET donor, Cisbio) was added in assay buffer. The components were incubated for 10 min at 25° C.
4.75 μl of hSOS1 working solution containing 20 nM hSOS1 enzyme and 200 nM EDA-GTP-DY-647P (FRET acceptor, synthesized by Jena Bioscience (Germany), supplied as a 1 mM solution) was further added in assay buffer. 4.75 μl of inhibitor control having only 200 nM EDA-GTP-DY-647P1 component without hSOS1 working solution was added in the negative control well. The plate was short spun for few seconds and incubated for 10 min. HTRF was measured using Perkin Elmer-Nivo 5F multimode plate reader.
HTRF settings: EXCITATION FILTER—320/75 nm, EMISSION FILTER (1) —615/8 nm, EMISSION FILTER (2)—665/8 nm
`CCN1CCN(c2cc3c(N[C@H](C)c4cc(N)cc(C(F)(F)F)c4)nc(N4CCC4)nc3cn2)CC1` [Example 48, (R)—N-(1-(3-amino-5-(trifluoromethyl)phenyl)ethyl)-2-(azetidin-1-yl)-6-(4-ethylpiperazin-1-yl)pyrido[3,4-d]pyrimidin-4-amine] was tested, and the inhibition at 1 µM was no less than 50%. Work on `C[C@@H](Nc1nc(Cl)nc2ncc(N3CCOCC3)cc12)c1cc(N)cc(C(F)(F)F)c1` [Example 84, (R)—N-(1-(3-amino-5-(trifluoromethyl)phenyl)ethyl)-2-chloro-6-morpholinopyrido[2,3-d]pyrimidin-4-amine] yielded an inhibition at 1 µM of no less than 50%. With `COc1nc(N[C@H](C)c2cc(N)cc(C(F)(F)F)c2)c2cc(N3CCC(OC)CC3)ncc2n1` [Example 58, (R)—N-(1-(3-amino-5-(trifluoromethyl)phenyl)ethyl)-2-methoxy-6-(4-methoxypiperidin-1-yl)pyrido[3,4-d]pyrimidin-4-amine] the inhibition at 1 µM was no less than 50%. Work on `CC(C)Nc1cc2c(N[C@H](C)c3cc(N)cc(C(F)(F)F)c3)nc(N3CCCC3)nc2cn1` [Example 55, (R)—N4-(1-(3-amino-5-(trifluoromethyl)phenyl)ethyl)-N6-isopropyl-2-(pyrrolidin-1-yl)pyrido[3,4-d]pyrimidine-4,6-diamine] yielded an inhibition at 1 µM of no less than 50%. In the case of `C[C@@H](Nc1nc(N2CCCC2=O)nc2cnc(N3CCCC3)cc12)c1cc(N)cc(C(F)(F)F)c1` [Example 34, (R)-1-(4-((1-(3-amino-5-(trifluoromethyl)phenyl)ethyl)amino)-6-(pyrrolidin-1-yl)pyrido[3,4-d]pyrimidin-2-yl)pyrrolidin-2-one], the inhibition at 1 µM is reported as no less than 50%. `COc1nc(N[C@H](C)c2cc(N)cc(C(F)(F)F)c2)c2cc(N3CCOCC3)ncc2n1` [Example 57, (R)—N-(1-(3-amino-5-(trifluoromethyl)phenyl)ethyl)-2-methoxy-6-morpholinopyrido[3,4-d]pyrimidin-4-amine] gave an inhibition at 1 µM of no less than 50%. In the case of `C[C@@H](Nc1nc(N(C)C)nc2cnc(C3CCN(C)CC3)cc12)c1cc(N)cc(C(F)(F)F)c1` [Example 69, (R)—N4-(1-(3-amino-5-(trifluoromethyl)phenyl)ethyl)-N2,N2-dimethyl-6-(1-methylpiperidin-4-yl)pyrido[3,4-d]pyrimidine-2,4-diamine], the inhibition at 1 µM is reported as no less than 50%. In the case of `COCC(=O)Nc1nc(N[C@H](C)c2cc(N)cc(C(F)(F)F)c2)c2cc(N3CCCC3)ncc2n1` [Example 76, (R)—N-(4-((1-(3-amino-5-(trifluoromethyl)phenyl)ethyl)amino)-6-(pyrrolidin-1-yl)pyrido[3,4-d]pyrimidin-2-yl)-2-methoxyacetamide], the inhibition at 1 µM is reported as less than 50%. Compound `COC1CCN(c2cc3c(N[C@H](C)c4cc(N)cc(C(F)(F)F)c4)nc(NC(C)C)nc3cn2)CC1` [Example 42, (R)—N4-(1-(3-amino-5-(trifluoromethyl)phenyl)ethyl)-N2-isopropyl-6-(4-methoxypiperidin-1-yl)pyrido[3,4-d]pyrimidine-2,4-diamine] has an inhibition at 1 µM of no less than 50%. Work on `C[C@@H](Nc1nc(N2CCN(C)CC2)nc2cnc(N3CCCC3)cc12)c1cc(N)cc(C(F)(F)F)c1` [Example 6, (R)—N-(1-(3-amino-5-(trifluoromethyl)phenyl)ethyl)-2-(4-methylpiperazin-1-yl)-6-(pyrrolidin-1-yl)pyrido[3,4-d]pyrimidin-4-amine] yielded an inhibition at 1 µM of less than 50%. Compound `CCN1CCN(c2cc3c(N[C@H](C)c4cc(N)cc(C(F)(F)F)c4)cnnc3cn2)CC1` [Example 85, (R)—N-(1-(3-amino-5-(trifluoromethyl)phenyl)ethyl)-6-(4-ethylpiperazin-1-yl)pyrido[3,4-c]pyridazin-4-amine] has an inhibition at 1 µM of no less than 50%. `CCN1CCN(c2cnc3cc(Cl)nc(N[C@H](C)c4cc(N)cc(C(F)(F)F)c4)c3c2)CC1` [Example 88, (R)—N-(1-(3-amino-5-(trifluoromethyl)phenyl)ethyl)-7-chloro-3-(4-ethylpiperazin-1-yl)-1,6-naphthyridin-5-amine] was tested, and the inhibition at 1 µM was no less than 50%. In the case of `C[C@@H](Nc1nc(N(C)C)nc2cnc(N3CCCC3)cc12)c1cc(N)cc(C(F)(F)F)c1` [Example 2, N4—(R)-(1-(3-amino-5-(trifluoromethyl)phenyl)ethyl)-N2,N2-dimethyl-6-(pyrrolidin-1-yl)pyrido[3,4-d]pyrimidine-2,4-diamine], the inhibition at 1 µM is reported as no less than 50%. `CNc1nc(N[C@H](C)c2cc(N)cc(C(F)(F)F)c2)c2cc(N3CCN(C)CC3)ncc2n1` [Example 31, (R)—N4-(1-(3-amino-5-(trifluoromethyl)phenyl)ethyl)-N2-methyl-6-(4-methylpiperazin-1-yl)pyrido[3,4-d]pyrimidine-2,4-diamine] gave an inhibition at 1 µM of no less than 50%. With `COC1CCN(c2cc3c(N[C@H](C)c4cc(N)cc(C(F)(F)F)c4)nc(Cl)nc3cn2)CC1` [Example 20, (R)—N-(1-(3-amino-5-(trifluoromethyl)phenyl)ethyl)-2-chloro-6-(4-methoxypiperidin-1-yl)pyrido[3,4-d]pyrimidin-4-amine] the inhibition at 1 µM was no less than 50%. With `C[C@@H](Nc1nc(N2CCC2)nc2cnc(N3CCCC3)cc12)c1cc(N)cc(C(F)(F)F)c1` [Example 16, (R)—N-(1-(3-amino-5-(trifluoromethyl)phenyl)ethyl)-2-(azetidin-1-yl)-6-(pyrrolidin-1-yl)pyrido[3,4-d]pyrimidin-4-amine] the inhibition at 1 µM was no less than 50%. In the case of `C[C@@H](Nc1nc(N(C)C)nc2cnc(N3CCC(F)CC3)cc12)c1cc(N)cc(C(F)(F)F)c1` [Example 43, (R)—N4-(1-(3-amino-5-(trifluoromethyl)phenyl)ethyl)-6-(4-fluoropiperidin-1-yl)-N2,N2-dimethylpyrido[3,4-d]pyrimidine-2,4-diamine], the inhibition at 1 µM is reported as no less than 50%. `CNc1nc(N[C@H](C)c2cc(N)cc(C(F)(F)F)c2)c2cc(N3CCC(OC)CC3)ncc2n1` [Example 30, (R)—N4-(1-(3-amino-5-(trifluoromethyl)phenyl)ethyl)-6-(4-methoxypiperidin-1-yl)-N2-methylpyrido[3,4-d]pyrimidine-2,4-diamine] was tested, and the inhibition at 1 µM was no less than 50%. `CC1CCN(c2cc3c(N[C@H](C)c4cc(N)cc(C(F)(F)F)c4)nc(N4CCC4)nc3cn2)CC1` [Example 47, (R)—N-(1-(3-amino-5-(trifluoromethyl)phenyl)ethyl)-2-(azetidin-1-yl)-6-(4-methylpiperidin-1-yl)pyrido[3,4-d]pyrimidin-4-amine] showed an inhibition at 1 µM of less than 50%. `CC(C)Nc1cc2c(N[C@H](C)c3cc(N)cc(C(F)(F)F)c3)nc(N3CCC3)nc2cn1` [Example 54, (R)—N4-(1-(3-amino-5-(trifluoromethyl)phenyl)ethyl)-2-(azetidin-1-yl)-N6-isopropylpyrido[3,4-d]pyrimidine-4,6-diamine] gave an inhibition at 1 µM of no less than 50%. Work on `CC(C)Nc1nc(N[C@H](C)c2cc(N)cc(C(F)(F)F)c2)c2cc(N3CCOCC3)ncc2n1` [Example 38, (R)—N4-(1-(3-amino-5-(trifluoromethyl)phenyl)ethyl)-N2-isopropyl-6-morpholinopyrido[3,4-d]pyrimidine-2,4-diamine] yielded an inhibition at 1 µM of no less than 50%. In the case of `CCN1CCN(c2cnc3c(C)nnc(N[C@H](C)c4cc(N)cc(C(F)(F)F)c4)c3c2)CC1` [Example 86, (R)—N-(1-(3-amino-5-(trifluoromethyl)phenyl)ethyl)-3-(4-ethylpiperazin-1-yl)-8-methylpyrido[2,3-d]pyridazin-5-amine], the inhibition at 1 µM is reported as no less than 50%. `CCN1CCN(c2cc3c(N[C@H](C)c4cc(N)cc(C(F)(F)F)c4)nc(N(C)C)nc3cn2)CC1` [Example 49, (R)—N4-(1-(3-amino-5-(trifluoromethyl)phenyl)ethyl)-6-(4-ethylpiperazin-1-yl)-N2,N2-dimethylpyrido[3,4-d]pyrimidine-2,4-diamine] showed an inhibition at 1 µM of no less than 50%. `C[C@@H](Nc1nc(N2CCC2)nc2cnc(C3CCOCC3)cc12)c1cc(N)cc(C(F)(F)F)c1` [Example 67, (R)—N-(1-(3-amino-5-(trifluoromethyl)phenyl)ethyl)-2-(azetidin-1-yl)-6-(tetrahydro-2H-pyran-4-yl)pyrido[3,4-d]pyrimidin-4-amine] was tested, and the inhibition at 1 µM was no less than 50%. `CNc1nc(N[C@H](C)c2cc(N)cc(C(F)(F)F)c2)c2cc(N3CCC(F)CC3)ncc2n1` [Example 33, (R)—N4-(1-(3-amino-5-(trifluoromethyl)phenyl)ethyl)-6-(4-fluoropiperidin-1-yl)-N2-methylpyrido[3,4-d]pyrimidine-2,4-diamine] was tested, and the inhibition at 1 µM was no less than 50%.
